Assay results from patent US6822003B2, “Aldose reductase inhibitor and process for preparation thereof” (Council of Scientific and Industrial Research, priority 2001, dated 2004).
pIC50: −log10 of the molar value.

Assays:
[1] = target: rat lens aldose reductase (Rattus norvegicus, UniProt P07943); assay: rat lens aldose reductase inhibition, decrease in absorbence at 340 nm; format: biochemical; details: DL-glyceraldehyde substrate, 25° C., pH 7.0; read-out: IC50 against rat lens aldose reductase inhibitory activity
Method: Lens were collected from rat eyes and homogenized with sodium, potassium phosphate buffer (0.135 M, pH 7.0) containing 0.5 mM of phenyl methyl sulphonyl fluoride and 10 mM of β-mercaptoethanol. The homogenate was centrifuged at 10,000 r.p.m for 30 minutes at 4° C. The supernatant was taken as enzyme source. Enzyme reaction was carried out at 25° C. in a quartz cuvette with a 1 cm light path. The assay mixture contained 100 μL of nicotinamide adenine dinucleotide phosphate tetra sodium salt (from a stock solution of 9.6 mM), 100 μL of DL-glyceraldehyde (from a stock solution of 250 mM), 10 μL of inhibitor dissolved in dimethyl sulphoxide, sodium-potassium-phosphate buffer (0.135 M, pH 7.0) to make up the total volume to 3 mL and the reaction was initiated by the addition of 200 μL of enzyme solution. The enzyme reaction was monitored by the decrease in absorbence at 340 nm and compared with enzyme reaction without inhibitor.

solubility in solvents = format: physicochemical
diabetic rats = details: via an intragastric tube, compared with ONO-2235; cited from earlier work

Structure (SMILES) | pIC50 [1] | solubility in chloroform and hexane (solubility in solvents; chloroform and hexane) | solubility in methanol, ethyl acetate, dimethyl sulphoxide, diethyl ether, sodium bicarbonate, sodium carbonate and sodium hydroxide solution (solubility in solvents; organic solvents and alkaline solutions) | solubility in water (solubility in solvents; water) | suppression of sorbitol accumulation in the red blood cells, the sciatic nerve, and the lens (diabetic rats)
CCCCCCOc1cc(O)cc2c1C(=O)C(O)=CC2=O [Compound 1, 2, 6, dihydroxy, 8, hexoxy, 1, 4, naphthaquinone] | 4.58 | slightly soluble | soluble | insoluble | –
O=C(/C=C/c1ccc(O)cc1)c1ccc(O)cc1O [Isoliquiritigenin, isoliquiritigenin] | – | – | – | – | suppressed sorbitol accumulation in the red blood cells, the sciatic nerve, and the lens as effectively as ONO-2235
